Laboratory results from patent US8114991B2, “Amino-1,3,5-triazines N-substituted with chiral bicyclic radicals, process for their preparation, compositions thereof, and their use as herbicides and plant growth regulators” (Bayer Cropscience AG, priority 2003, dated 2012).

Experiments:
[1] = system: harmful plants such as Stellaria media, Lolium multiforum, Amaranthus retroflexus, Sinapis alba, Avena sativa and Setaria viridis; test: Pre-emergence effect on weeds (greenhouse pot test); format: in vivo; details: application rate of 1 kg or less of active ingredient per hectare; scored after 3 to 4 weeks by comparison with untreated controls
Text: Seeds or rhizome pieces of monocotyledonous and dicotyledonous weed plants were placed in sandy loam in plastic pots and covered with soil. The compounds according to the invention, which were formulated in the form of wettable powders or emulsion concentrates, were then applied to the surface of the soil cover as aqueous suspension or emulsion at various dosages with an application rate of 600 to 800 l of water per ha (converted).
After the treatment, the pots were placed into a greenhouse and kept under good growth conditions for the weeds. The plant or emergence damage was scored visually after the test plants have emerged after an experimental time of 3 to 4 weeks by comparison with untreated controls.

[2] = system: harmful plants such as Sinapis alba, Echinochloa crus-galli, Lolium multiflorum, Stellaria media, Cyperus iria, Amaranthus retroflexus, Setaria viridis, Avena …; test: Post-emergence effect on weeds (greenhouse pot test); format: in vivo; details: application rate of 2 kg or less of active ingredient per hectare; treated in the three-leaf stage; scored after approx. 3 to 4 weeks by comparison with untreated controls

## Cc1ccc2c(c1)C(Nc1nc(N)nc(C(F)C#N)n1)C(C)C2 (mixture of isomers) [Compound 7.243]
[1]
  pre-emergence control of harmful plants (plant or emergence damage scored visually): very good pre-emergence control
[2]
  herbicidal post-emergence activity against harmful plants (scored visually): very good herbicidal post-emergence activity

## CCC(F)c1nc(N)nc(NC2c3ccccc3CC2C)n1 (mixture of isomers) [Compound 9.36]
[1]
  pre-emergence control of harmful plants (plant or emergence damage scored visually): very good pre-emergence control
[2]
  herbicidal post-emergence activity against harmful plants (scored visually): very good herbicidal post-emergence activity

## CC(F)c1nc(N)nc(NC2CCc3ccccc32)n1 (mixture of isomers) [Compound 10.1]
[1]
  pre-emergence control of harmful plants (plant or emergence damage scored visually): very good pre-emergence control
[2]
  herbicidal post-emergence activity against harmful plants (scored visually): very good herbicidal post-emergence activity

## CCC(F)c1nc(N)nc(N[C@@H]2CCc3ccc(F)cc32)n1 (mixture of isomers) [Compound 10.38]
[1]
  pre-emergence control of harmful plants (plant or emergence damage scored visually): very good pre-emergence control
[2]
  herbicidal post-emergence activity against harmful plants (scored visually): very good herbicidal post-emergence activity

## CCCC(F)c1nc(N)nc(NC2CCOc3c(C)cc(C)cc32)n1 (mixture of isomers) [Compound 10.67]
[1]
  pre-emergence control of harmful plants (plant or emergence damage scored visually): very good pre-emergence control
[2]
  herbicidal post-emergence activity against harmful plants (scored visually): very good herbicidal post-emergence activity

## CCC(F)c1nc(N)nc(NC2CCCc3c(C)cc(C)cc32)n1 (mixture of isomers) [Compound 10.68]
[1]
  pre-emergence control of harmful plants (plant or emergence damage scored visually): very good pre-emergence control
[2]
  herbicidal post-emergence activity against harmful plants (scored visually): very good herbicidal post-emergence activity

## C[C@@H](F)c1nc(N)nc(N[C@@H]2CCc3ccccc32)n1 [Compound 1.1]
[1]
  pre-emergence control of harmful plants (plant or emergence damage scored visually): very good pre-emergence control
[2]
  herbicidal post-emergence activity against harmful plants (scored visually): very good herbicidal post-emergence activity

## Cc1ccc2c(c1)[C@H](Nc1nc(N)nc([C@@H](C)F)n1)CC2 [Compound 1.2]
[1]
  pre-emergence control of harmful plants (plant or emergence damage scored visually): very good pre-emergence control
[2]
  herbicidal post-emergence activity against harmful plants (scored visually): very good herbicidal post-emergence activity

## C[C@@H](F)c1nc(N)nc(N[C@@H]2CCc3ccc(F)cc32)n1 [Compound 1.3]
[1]
  pre-emergence control of harmful plants (plant or emergence damage scored visually): very good pre-emergence control
[2]
  herbicidal post-emergence activity against harmful plants (scored visually): very good herbicidal post-emergence activity

## Cc1cc2c(cc1C)[C@H](Nc1nc(N)nc([C@@H](C)F)n1)CC2 [Compound 1.7]
[1]
  pre-emergence control of harmful plants (plant or emergence damage scored visually): very good pre-emergence control
[2]
  herbicidal post-emergence activity against harmful plants (scored visually): very good herbicidal post-emergence activity

## C[C@@H](F)c1nc(N)nc(N[C@@H]2CCCc3ccccc32)n1 [Compound 1.11]
[1]
  pre-emergence control of harmful plants (plant or emergence damage scored visually): very good pre-emergence control
[2]
  herbicidal post-emergence activity against harmful plants (scored visually): very good herbicidal post-emergence activity

## Cc1ccc2c(c1)[C@H](Nc1nc(N)nc([C@@H](C)F)n1)CCC2 [Compound 1.12]
[1]
  pre-emergence control of harmful plants (plant or emergence damage scored visually): very good pre-emergence control
[2]
  herbicidal post-emergence activity against harmful plants (scored visually): very good herbicidal post-emergence activity

## Cc1cc(C)c2c(c1)[C@H](Nc1nc(N)nc([C@@H](C)F)n1)CCC2 [Compound 1.15]
[1]
  pre-emergence control of harmful plants (plant or emergence damage scored visually): very good pre-emergence control
[2]
  herbicidal post-emergence activity against harmful plants (scored visually): very good herbicidal post-emergence activity

## Cc1ccc2c(c1)[C@H](Nc1nc(N)nc([C@@H](C)F)n1)CCO2 [Compound 1.21]
[1]
  pre-emergence control of harmful plants (plant or emergence damage scored visually): very good pre-emergence control
[2]
  herbicidal post-emergence activity against harmful plants (scored visually): very good herbicidal post-emergence activity

## C[C@@H](Cl)c1nc(N)nc(N[C@@H]2CCc3ccccc32)n1 [Compound 1.24]
[1]
  pre-emergence control of harmful plants (plant or emergence damage scored visually): very good pre-emergence control
[2]
  herbicidal post-emergence activity against harmful plants (scored visually): very good herbicidal post-emergence activity
